Calls of active or inactive are those of the source. How the calls were made is not given here.

Results on 56 compounds are retold here after ChEMBL document CHEMBL3987221, “The Australian National University Dept Of Immunology Pathogen Box Compounds Screened” (2018).

Assay [1] concerns the target T1, Ferrochelatase, mitochondrial (Homo sapiens) (UniProt P22830).
T1 sequence (whole entry): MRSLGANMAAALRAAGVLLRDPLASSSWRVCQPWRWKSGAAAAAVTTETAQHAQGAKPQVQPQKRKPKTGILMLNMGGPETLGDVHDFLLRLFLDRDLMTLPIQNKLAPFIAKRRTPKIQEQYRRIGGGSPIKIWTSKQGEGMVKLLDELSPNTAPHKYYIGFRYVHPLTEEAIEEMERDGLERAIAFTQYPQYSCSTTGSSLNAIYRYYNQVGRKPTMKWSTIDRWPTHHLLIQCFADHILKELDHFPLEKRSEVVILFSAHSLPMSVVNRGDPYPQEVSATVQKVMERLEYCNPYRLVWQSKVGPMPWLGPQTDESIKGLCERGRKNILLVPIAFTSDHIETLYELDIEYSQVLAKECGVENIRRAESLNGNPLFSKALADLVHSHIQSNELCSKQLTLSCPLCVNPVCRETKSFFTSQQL
The conditions noted are these: at 10 µM.
Description: Compound was evaluated for the inhibition of human FECH at 10uM

In assay [2] the target is T2, Porphobilinogen deaminase (Homo sapiens) (UniProt P08397).
T2 sequence (whole entry): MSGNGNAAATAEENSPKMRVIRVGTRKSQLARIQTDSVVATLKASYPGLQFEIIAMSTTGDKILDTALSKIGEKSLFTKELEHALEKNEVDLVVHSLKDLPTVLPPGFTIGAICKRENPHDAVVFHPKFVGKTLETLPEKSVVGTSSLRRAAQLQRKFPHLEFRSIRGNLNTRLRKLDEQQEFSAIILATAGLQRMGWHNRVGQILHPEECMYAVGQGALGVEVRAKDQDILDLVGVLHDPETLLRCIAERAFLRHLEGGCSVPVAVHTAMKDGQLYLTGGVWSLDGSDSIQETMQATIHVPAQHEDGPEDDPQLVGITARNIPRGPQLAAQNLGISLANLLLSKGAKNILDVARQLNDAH
The conditions noted are these: at 100 µM.
Description: Compound was evaluated for the inhibition of human HMBS at 100uM

For `O=C(CN1CCOCC1)Nc1ccc2ncnc(Nc3ccc(OCc4cccc(F)c4)c(Cl)c3)c2c1`, the inhibition result in assay [1] and in assay [2] was “inactive” in each case.

On to `CC1=Nc2ccc(Cl)cc2C(O)(c2ccc(C)cc2)N1CCN1CCCCC1` (configuration not stated), for which the inhibition result in assay [1] and in assay [2] was “inactive” each time.

Turning to `CC(C)C(NC(=O)Cc1cccc2ccccc12)C(=O)Nc1cccc(C#N)c1` (configuration not stated), the inhibition entry in assay [1] and in assay [2] was “inactive” in each case.

Regarding `Nc1ncnc2[nH]nc(Cc3cccc4ccccc34)c12`, the inhibition entry in assay [1] and in assay [2] was “inactive” each time.

Turning to `COc1ccc(Nc2ccccc2NC(=O)c2ccc(O)nc2)cc1`, the inhibition result in assay [1] and in assay [2] was “inactive” throughout.

`COCC(C)NC(=O)CSc1ncnc2sc(-c3ccccc3)cc12` (configuration not stated): the inhibition result in assay [1] and in assay [2] was “inactive” in each case.

Consider `CS(=O)(=O)c1ccccc1C(=O)N(Cc1ccccc1)c1ccccc1`, for which the inhibition entry in assay [1] and in assay [2] was “inactive” each time.

In the case of `CN1CCN(S(=O)(=O)c2ccc(-c3ccc4c(Nc5ccc6nn[nH]c6c5)ccnc4c3)cc2)CC1`, the inhibition result in assay [1] and in assay [2] was “inactive” throughout.

Consider `Cc1noc(C)c1C(=O)N1CCCC(c2[nH]c3c(C)cccc3c2-c2ccncc2)C1` (configuration not stated), for which the inhibition entry in assay [1] and in assay [2] was “inactive” in each case.

For `O=S(=O)(c1ccc(Cl)cc1)N1CCN(C(=S)NCc2ccco2)CC1`, the inhibition result in assay [1] and in assay [2] was “inactive” throughout.

For the compound `CC(C(=O)Nc1ccc2oc(-c3ccncc3)nc2c1)c1ccccc1` (configuration not stated), the inhibition result in assay [1] and in assay [2] was “inactive” in each case.

With `Clc1cccc(CO[C@H]2CCc3ccccc3[C@@H]2n2ccnn2)c1`, the inhibition entry in assay [1] and in assay [2] was “inactive” throughout.

Regarding `CO/C=C(/C(=O)OC)c1ccccc1Oc1cc(Oc2ccccc2C#N)ncn1`, the inhibition result in assay [1] and in assay [2] was “inactive” in each case.

For `CN1CCN(c2cc(-c3ccc(F)cc3)nc(-c3ccncc3)n2)CC1`, the inhibition entry in assay [1] and in assay [2] was “inactive” throughout.

Regarding `Nc1ncnc2c1ncn2C[C@@H](O)[C@@H](O)C(=O)O`, the inhibition entry in assay [1] and in assay [2] was “inactive” in each case.

Turning to `CC1=Nc2ccc(Cl)cc2C(c2ccccc2)N1CCNC(=O)CN(C)C` (configuration not stated), the inhibition entry in assay [1] and in assay [2] was “inactive” each time.

Regarding `Cc1ccc(S(=O)(=O)N2CCN(C(=O)c3cc(-c4ccccc4)n[nH]3)CC2)cc1`, the inhibition entry in assay [1] and in assay [2] was “inactive” throughout.

Regarding `c1ccc2c(c1)CN(CC1CC1)CC1(CCN(Cc3c[nH]c4cnccc34)CC1)O2`, the inhibition entry in assay [1] and in assay [2] was “inactive” in each case.

Consider `Nc1ncnc2c1c(Cc1cccc3ccccc13)nn2CC1CCNCC1`, for which the inhibition entry in assay [1] and in assay [2] was “inactive” each time.

Take `Cc1ccc(-c2nc(CN(Cc3ccccn3)C(C)C)cs2)o1`: the inhibition entry in assay [1] and in assay [2] was “inactive” throughout.

Take `CC(C)(C)C(=O)N(CCCCCCN1C[C@H](O)[C@@H](O)[C@H](O)[C@H]1CO)C1CCCCCC1`: the inhibition result in assay [1] and in assay [2] was “inactive” each time.

On to `Cc1ccc(S(=O)(=O)Nc2ccc(CN3CCN(C(=O)c4cccc(C#N)c4)CC3)cc2)cc1`, for which the inhibition result in assay [1] and in assay [2] was “inactive” each time.

Consider `Cc1nnc(NCc2cccc(Cl)c2)c2ccccc12`, for which the inhibition entry in assay [1] and in assay [2] was “inactive” each time.

Take `Cc1cc(C(=O)Nc2ccc(-c3ccccc3)cc2)no1`: the inhibition entry in assay [1] and in assay [2] was “inactive” in each case.

For the compound `O=C(COc1cccc(F)c1)Nc1nc(-c2ccccn2)cs1`, the inhibition entry in assay [1] and in assay [2] was “inactive” each time.

With `COc1ccccc1CNC(=O)c1cc(C2CC2)nc2c1cnn2C(C)C`, the inhibition entry in assay [1] and in assay [2] was “inactive” throughout.

As for `CC(C)(C)[C@H]1CC[C@H](CC2=C(O)C(=O)c3ccccc3C2=O)CC1`, the inhibition entry in assay [1] and in assay [2] was “inactive” each time.

In the case of `Nc1ccc2ncnc(Nc3ccc(OCc4cccc(F)c4)c(Cl)c3)c2c1`, the inhibition entry in assay [1] and in assay [2] was “inactive” in each case.

For `Cc1ccc2oc(-c3cc(NC(=O)Cc4ccccc4)ccc3Cl)nc2c1`, the inhibition entry in assay [1] and in assay [2] was “inactive” throughout.

For the compound `Nc1cccnc1Nc1ccc(Cl)cc1`, the inhibition result in assay [1] and in assay [2] was “inactive” each time.

For the compound `NC(=O)c1cc(Br)ccc1OCCOc1ccccc1`, the inhibition entry in assay [1] and in assay [2] was “inactive” each time.

Regarding `COc1cccc(OC)c1C(=O)Nc1ccc(Cl)c(-c2nc3ccccc3s2)c1`, the inhibition result in assay [1] and in assay [2] was “inactive” each time.

Turning to `N#Cc1ccc(-c2ccc(OCC(N)=O)cc2)cc1`, the inhibition entry in assay [1] and in assay [2] was “inactive” in each case.

In the case of `CCN(CC)S(=O)(=O)c1ccc(Cl)c(C(=O)Nc2ccc3nc(C)sc3c2)c1`, the inhibition result in assay [1] and in assay [2] was “inactive” each time.

`COc1ccc2nc(C)cc(OCC(=O)Nc3ccccc3OC)c2c1`: the inhibition entry in assay [1] and in assay [2] was “inactive” each time.

In the case of `Cn1ncc2c(N3CCOCC3)nc(NCCc3c[nH]c4ccccc34)nc21`, the inhibition result in assay [1] and in assay [2] was “inactive” throughout.

Regarding `CCN(CC)C(=O)N1CCN(C)CC1`, the inhibition result in assay [1] and in assay [2] was “inactive” each time.

In the case of `CC(=O)NCC1CN(c2ccc(-c3ccc(CNCc4cn[nH]n4)cc3)c(F)c2)C(=O)O1` (configuration not stated), the inhibition entry in assay [1] and in assay [2] was “inactive” each time.

As to `NCCN(C(=O)c1ccc(Cl)cc1Cl)c1ccc(OCc2ccc(Cl)cc2)cc1`, the inhibition result in assay [1] and in assay [2] was “inactive” throughout.

For `CS(=O)(=O)Cc1nc2ccccc2oc1=O`, the inhibition result in assay [1] and in assay [2] was “inactive” each time.

In the case of `CCOC(=O)NC(=O)c1ccsc1NC(=O)c1nc2ccccc2s1`, the inhibition entry in assay [1] and in assay [2] was “inactive” in each case.

As for `COc1ccc(-c2nnc3ccc(-c4cccc(C(C)C)c4)cn23)cc1OC`, the inhibition result in assay [1] and in assay [2] was “inactive” throughout.

As for `CCOc1ccccc1C(=O)Nc1cccc(-c2nc3ncccn3c2C)c1`, the inhibition entry in assay [1] and in assay [2] was “inactive” throughout.

Take `COc1ccc(S(=O)(=O)Nc2ccc(CN3CCN(C(=O)c4cccc(C#N)c4)CC3)cc2)cc1`: the inhibition result in assay [1] and in assay [2] was “inactive” throughout.

In the case of `O=C1O[C@@H](CO)CN1c1cc(F)c(C2=CCN(Cc3ccccc3)CC2)c(F)c1`, the inhibition entry in assay [1] and in assay [2] was “inactive” throughout.

Regarding `C[C@]1(O)C[C@@H](c2nc(-c3ccc4ccc(-c5ccccc5)nc4c3)c3c(N)nccn32)C1`, the inhibition result in assay [1] and in assay [2] was “inactive” throughout.

With `Cc1cc(C2=NOC(c3cc(Cl)c(F)c(Cl)c3)(C(F)(F)F)C2)ccc1C(=O)NCc1ccc2c(c1)C(C)(C)OB2O` (configuration not stated), the inhibition result in assay [1] and in assay [2] was “inactive” in each case.

As for `COc1ccc(-c2cnc3cnc(-c4cccc(OC(C)C)c4)cn23)cc1`, the inhibition entry in assay [1] and in assay [2] was “inactive” each time.

`CCN(CC)CCCCCCNc1cc(OC)cc2c(C)ccnc12`: the inhibition result in assay [1] and in assay [2] was “inactive” throughout.

In the case of `Clc1ccc(-n2cc(COc3ccnc4ccccc34)nn2)cc1`, the inhibition result in assay [1] and in assay [2] was “inactive” throughout.

With `Cc1cc(Nc2ccncc2)n2nc(C)c(-c3ccccc3Cl)c2n1`, the inhibition result in assay [1] and in assay [2] was “inactive” each time.

Turning to `CC(C)(C)OC(=O)N1CCN(c2cc(-c3ccc(Oc4ccccc4)cc3)n[nH]2)CC1`, the inhibition entry in assay [1] and in assay [2] was “inactive” each time.

On to `NC(CC(=O)c1ccc(Cl)cc1Cl)C(Cl)(Cl)Cl` (configuration not stated), for which the inhibition entry in assay [1] and in assay [2] was “inactive” throughout.

On to `O=C(NC1=NCCS1)c1sc2cc(F)ccc2c1Cl`, for which the inhibition result in assay [1] and in assay [2] was “inactive” throughout.

Consider `O=C(NCCc1ccn(-c2ccccc2)n1)C1CCCCC1`, for which the inhibition entry in assay [1] and in assay [2] was “inactive” throughout.

On to `CCc1c(C)nc(-n2nc(C)cc2NC(=O)c2ccccc2SC)[nH]c1=O`, for which the inhibition entry in assay [1] and in assay [2] was “inactive” in each case.
